Experimental data reported in US20260001914A1, “MACROCYCLIC PEPTIDES TARGETING KRAS” (Merck Sharp & Dohme LLC, priority 2022, published 2026).
*1 amine or outer side, *2 acyl side, *3 side chain or, on linkers, in order; H or OH if unused. Where a SMILES comes first, the peptide text is derived from it. Bridges are numbered along the chain shown (N, C = ends). [ ]: non-standard residue; d: D form. Phe(4-guanidino) = N=C(N)Nc1ccc(C[C@H](N)C(=O)O)cc1; X18 = CNC(=N)N(C)c1ccc(C[C@H](N[*:1])C(=O)[*:2])cc1; X22 = CNC(=N)N(C)CCC[C@@H](C(=O)[*:2])N(C)[*:1]; Ala(pyrimidin-5-yl) = N[C@@H](Cc1cncnc1)C(=O)O; Phe(3-COOH) = N[C@@H](Cc1cccc(C(=O)O)c1)C(=O)O; NMe3Pal(6-Me) = CN[C@@H](Cc1ccc(C)nc1)C(=O)O; NMe3Pal(5-F) = CN[C@@H](Cc1cncc(F)c1)C(=O)O; NMePhe(4-Me) = CN[C@@H](Cc1ccc(C)cc1)C(=O)O; X39 = CN([C@@H](Cc1cccnc1F)C(=O)[*:2])[*:1]; X33 = O=C([C@H](Cc1ccnc(F)c1F)N[*:1])[*:2]; X42 = O=C([C@H](Cc1cc(F)ncc1F)N[*:1])[*:2]; X25 = O=C([C@H](Cc1ccc(F)nc1)N[*:1])[*:2]; NMeArg(Me) = CNC(=N)NCCC[C@H](NC)C(=O)O; X11 = CC(C)(F)CC[C@H](N[*:1])C(=O)[*:2]; X30 = O=C([C@H](Cc1ncccc1F)N[*:1])[*:2]; NMeAha = CN[C@@H](CCN=[N+]=[N-])C(=O)O; Phe(3-F) = N[C@@H](Cc1cccc(F)c1)C(=O)O; X2 = O=C([C@H](Cc1ccccc1F)O[*:1])[*:2]; 1Nal = N[C@@H](Cc1cccc2ccccc12)C(=O)O; NHCH2CH2SCH2CO = O=C(CSCCN[*:1])[*:2]; X35 = CN([C@@H](CCCF)C(=O)[*:2])[*:1]; Phe(2-F) = N[C@@H](Cc1ccccc1F)C(=O)O; NMe3Pal = CN[C@@H](Cc1cccnc1)C(=O)O; X1 = O=C(C12CC(CN[*:1])(C1)C2)[*:2]; NMeAad = CN[C@@H](CCCC(=O)O)C(=O)O; NMeOrn(Me) = CNCCC[C@H](NC)C(=O)O; Ala(cPr) = N[C@@H](CC1CC1)C(=O)O; NMeF = CN[C@@H](Cc1ccccc1)C(=O)O; PhLac = O=C(O)[C@@H](O)Cc1ccccc1; 3Pal = N[C@@H](Cc1cccnc1)C(=O)O; Ahp(2) = CCCCC[C@H](N)C(=O)O; Cba = N[C@@H](CC1CCC1)C(=O)O; hLeu = CC(C)CC[C@H](N)C(=O)O; αMeC = C[C@](N)(CS)C(=O)O; NMeA = CN[C@@H](C)C(=O)O; Nle = CCCC[C@H](N)C(=O)O

Target: phosphorylation levels of ERK1/2 in AsPC-1 (homozygous KRAS-G12D) cells (Homo sapiens, UniProt P01116, G12D)
Assay: Cellular phospho-ERK assay in AsPC-1 cells (Alpha Screen), assay medium without fetal bovine serum;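 further: signal taken as phospho-ERK over total ERK per well, both detected in one multiplex bead assay, EC50 from four-parameter logistic fit of dose-response curves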
Type: cell-based
Settings: phospho-ERK AlphaScreen, 18 h
Experimental: Assay plate was incubated at 37° C. 5% CO2 for the indicated length of time. […] Phosphorylated ERK and total ERK levels were detected by Alpha SureFire Ultra Multiplex pERK kit (PerkinElmer MPSU-PTERK) using 5 μL, acceptor bead mix and 5 μL donor bead mix, both prepared following the manufacturer's protocol. Plates were sealed using aluminum sealing tape (Costar 07-200-683) during incubation at ambient temperature with constant shaking at 300 rpm for 1 h (both acceptor and donor). Assay plates were read on a Envision Xcite Multilabel Reader (PerkinElmer 1040900) at ambient temperature, with emission at 535 nm (Total ERK) and emission at 615 nm (Phospho ERK). Ratio of pERK vs total ERK in each well was used as the final readout. Dose response curves and EC50 were analyzed using a 4-parameter logistic equation in GraphPad Prism software.

phosphorylation levels of ERK1/2 in AsPC-1 (homozygous KRAS-G12D) cells, sequence (P01116 1-186 G12D): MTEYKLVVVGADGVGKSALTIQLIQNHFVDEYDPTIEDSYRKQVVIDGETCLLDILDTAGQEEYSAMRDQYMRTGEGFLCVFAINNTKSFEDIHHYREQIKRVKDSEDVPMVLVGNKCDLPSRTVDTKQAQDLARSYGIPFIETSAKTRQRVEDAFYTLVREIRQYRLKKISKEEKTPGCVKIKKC

Compound	EC50 [µM]
CCCC[C@@H]1NC(=O)[C@H](Cc2ccc(F)nc2)NC(=O)[C@H](C)N(C)C(=O)[C@H](Cc2ccccc2)OC(=O)C23CC(CNC(=O)[C@H](Cc4cccnc4)N(C)C(=O)[C@H](CCCC)NC(=O)[C@H](Cc4ccccc4F)NC1=O)(C2)C3 [compound 235, cyclo(FLac-NMeA-4F3Pal-Nle-Phe2F-Nle-NMe3Pal-amBCP)] (cyclo([NMe3Pal][X1][PhLac][NMeA][X25][Nle][Phe(2-F)][Nle]))	11.8
CCCC[C@@H]1NC(=O)[C@H](Cc2cccnc2)NC(=O)[C@H](CCCC(=O)N(C)C)N(C)C(=O)[C@H](Cc2ccccc2)OC(=O)C23CC(CNC(=O)[C@H](Cc4cccnc4)N(C)C(=O)[C@H](CCCC)NC(=O)[C@H](Cc4ccccc4F)NC1=O)(C2)C3 [compound 408, cyclo(FLac-hQdm-3Pal-Nle-Phe2F-Nle-NMe3Pal-amBCP)] (cyclo([3Pal][Nle][Phe(2-F)][Nle][NMe3Pal][X1][PhLac][NMeAad](NMe2)))	> 50.8
CC(C)CC[C@@H]1NC(=O)[C@H](Cc2ccccc2F)NC(=O)[C@H](CC2CC2)NC(=O)[C@H](Cc2cccnc2)NC(=O)[C@H](C)N(C)C(=O)[C@H](Cc2ccccc2)OC(=O)C23CC(CNC(=O)[C@H](Cc4cncc(F)c4)N(C)C1=O)(C2)C3 [compound 283, cyclo(FLac-NMeA-3Pal-cPrA-Phe2F-hL-NMe3Pal5F-amBCP)] (cyclo([3Pal][Ala(cPr)][Phe(2-F)][hLeu][NMe3Pal(5-F)][X1][PhLac][NMeA]))	1.27
CCCC[C@@H]1NC(=O)[C@H](Cc2ccc(F)nc2)NC(=O)[C@H](C)N(C)C(=O)[C@H](Cc2ccccc2)OC(=O)C23CC(CNC(=O)[C@H](Cc4ccccc4)N(C)C(=O)[C@H](CCCC)NC(=O)[C@H](Cc4ncccc4F)NC1=O)(C2)C3 [compound 228, cyclo(FLac-NMeA-4F3Pal-Nle-2Pal6F-Nle-NMeF-amBCP)] (cyclo([NMeA][X25][Nle][X30][Nle][NMeF][X1][PhLac]))	> 50.8
CCCC[C@@H]1NC(=O)[C@H](Cc2ccccc2F)NC(=O)[C@H](CC(C)C)NC(=O)[C@H](Cc2cncnc2)NC(=O)[C@H](C)N(C)C(=O)[C@H](Cc2ccccc2)OC(=O)C23CC(CNC(=O)[C@H](Cc4cccnc4)N(C)C1=O)(C2)C3 [compound 129, cyclo(FLac-NMeA-PyrimAla-L-Phe2F-Nle-NMe3Pal-amBCP)] (cyclo([PhLac][NMeA][Ala(pyrimidin-5-yl)]L[Phe(2-F)][Nle][NMe3Pal][X1]))	> 50.8
C[C@H]1C(=O)N[C@@H](Cc2cccnc2)C(=O)N[C@@H](CC2CC2)C(=O)N[C@@H](Cc2ccccc2F)C(=O)N[C@@H](CCC(C)(C)F)C(=O)N(C)[C@@H](Cc2cncc(F)c2)C(=O)NCC23CC(C2)(C3)C(=O)O[C@@H](Cc2ccccc2)C(=O)N1C [compound 284, cyclo(FLac-NMeA-3Pal-cPrA-Phe2F-hL3F-NMe3Pal5F-amBCP)] (cyclo([3Pal][Ala(cPr)][Phe(2-F)][X11][NMe3Pal(5-F)][X1][PhLac][NMeA]))	4.59
CC(C)CC[C@@H]1NC(=O)[C@H](Cc2ccccc2F)NC(=O)[C@H](CC2CC2)NC(=O)[C@H](Cc2cncnc2)NC(=O)[C@H](CCCF)N(C)C(=O)[C@H](Cc2ccccc2)OC(=O)C23CC(CNC(=O)[C@H](Cc4ccccc4)N(C)C1=O)(C2)C3 [compound 216, cyclo(FLac-NMeNvaF-PyrimAla-cPrA-Phe2F-hL-NMeF-amBCP)] (cyclo([Ala(cPr)][Phe(2-F)][hLeu][NMeF][X1][PhLac][X35][Ala(pyrimidin-5-yl)]))	1.23
CC(C)CC[C@@H]1NC(=O)[C@H](Cc2cccc(F)c2)NC(=O)[C@H](CC2CCC2)NC(=O)[C@H](Cc2cncnc2)NC(=O)[C@H](C)N(C)C(=O)[C@H](Cc2ccccc2)OC(=O)C23CC(CNC(=O)[C@H](Cc4ccccc4)N(C)C1=O)(C2)C3 [compound 303, cyclo(FLac-NMeA-PyrimAla-cBuA-Phe3F-hL-NMeF-amBCP)] (cyclo([Cba][Phe(3-F)][hLeu][NMeF][X1][PhLac][NMeA][Ala(pyrimidin-5-yl)]))	0.806
CCCC[C@@H]1NC(=O)[C@H](Cc2ccccc2)NC(=O)[C@H](C)N(C)C(=O)[C@H](Cc2ccccc2)OC(=O)C23CC(CNC(=O)[C@H](Cc4ccccc4)N(C)C(=O)[C@H](CCCC)NC(=O)[C@H](Cc4ccccc4F)NC1=O)(C2)C3 [compound 305, cyclo(FLac-NMeA-F-Nle-Phe2F-Nle-NMeF-amBCP)] (cyclo(F[Nle][Phe(2-F)][Nle][NMeF][X1][PhLac][NMeA]))	> 50.8
CC(C)CC[C@@H]1NC(=O)[C@H](Cc2cc(F)ncc2F)NC(=O)[C@H](CC2CC2)NC(=O)[C@H](Cc2cncnc2)NC(=O)[C@H](C)N(C)C(=O)[C@H](Cc2ccccc2)OC(=O)C23CC(CNC(=O)[C@H](Cc4ccccc4)N(C)C1=O)(C2)C3 [compound 280, cyclo(FLac-NMcA-PyrimAla-cPrA-4Pal25F2-hL-NMeF-amBCP)] (cyclo([Ala(cPr)][X42][hLeu][NMeF][X1][PhLac][NMeA][Ala(pyrimidin-5-yl)]))	1.23
CCCCC[C@@H]1NC(=O)[C@H](Cc2ccc(OC)cc2)NC(=O)[C@H](CC2CCC2)NC(=O)[C@H](Cc2ccc(N(C)C(=N)NC)cc2)NC(=O)[C@H](CCCNC)N(C)C(=O)[C@H](Cc2ccccc2)NC(=O)CSC[C@@](C)(C(N)=O)NC(=O)[C@H](Cc2ccc(C)nc2)N(C)C1=O [compound 395, cyclo(F-NMeOmMe-Phe4GnMeMe-cBuA-TyrOMe-Ahp-NMe3Pal4Me-aMeCl-ClAc)] ({CH2CO}-F[NMeOrn(Me)][X18][Cba]Y(Me)[Ahp(2)][NMe3Pal(6-Me)][αMeC]-NH2; thioether N-8)	> 50.8
CC(C)CC[C@@H]1NC(=O)[C@H](Cc2ccccc2F)NC(=O)[C@H](CC2CC2)NC(=O)[C@H](Cc2cncnc2)NC(=O)[C@H](C)N(C)C(=O)[C@H](Cc2ccccc2)OC(=O)C23CC(CNC(=O)[C@H](Cc4cccnc4F)N(C)C1=O)(C2)C3 [compound 336, cyclo(FLac-NMeA-PyrimAla-cPrA-Phe2F-hL-NMe3Pal2F-amBCP)] (cyclo([Ala(cPr)][Phe(2-F)][hLeu][X39][X1][PhLac][NMeA][Ala(pyrimidin-5-yl)]))	1.39
CCCC[C@@H]1NC(=O)[C@H](Cc2cncnc2)NC(=O)[C@H](C)N(C)C(=O)[C@H](Cc2ccccc2)OC(=O)C23CC(CNC(=O)[C@H](Cc4ccc(C)cc4)N(C)C(=O)[C@H](CCCC)NC(=O)[C@H](Cc4ccccc4F)NC1=O)(C2)C3 [compound 171, cyclo(FLac-NMeA-PyrimAla-Nle-Phe2F-Nle-NMePhe4Me-amBCP)] (cyclo([NMeA][Ala(pyrimidin-5-yl)][Nle][Phe(2-F)][Nle][NMePhe(4-Me)][X1][PhLac]))	0.223
CCCC[C@@H]1NC(=O)[C@H](Cc2cccnc2)NC(=O)[C@H](CCN=[N+]=[N-])N(C)C(=O)[C@H](Cc2ccccc2)OC(=O)C23CC(CNC(=O)[C@H](Cc4cccnc4)N(C)C(=O)[C@H](CCCC)NC(=O)[C@H](Cc4ccccc4F)OC1=O)(C2)C3 [compound 238, cyclo(FLac-NMeDabN3-3Pal-Nle-F2FLac-Nle-NMe3Pal-amBCP)] (cyclo([3Pal][Nle][X2][Nle][NMe3Pal][X1][PhLac][NMeAha]))	3.48
CCCC[C@@H]1NC(=O)[C@H](Cc2cncnc2)NC(=O)[C@H](CCCn2ccnc2)N(C)C(=O)[C@H](Cc2ccccc2)OC(=O)C23CC(CNC(=O)[C@H](Cc4ccccc4)N(C)C(=O)[C@H](CCCC)NC(=O)[C@H](Cc4ccccc4F)NC1=O)(C2)C3 (single isomer, unassigned) [compound 222, cyclo(FLac-NMeNvalmid-PyrimAla-Nle-Phe2F-Nle-NMeF-amBCP)]	> 50.8
CCCC[C@@H]1NC(=O)[C@H](CCCCN)NC(=O)[C@H](CCCNC(=N)N)NC(=O)[C@H](Cc2cccc3ccccc23)NC(=O)CSCCNC(=O)[C@H](Cc2ccccc2)N(C)C(=O)[C@H](CCCC)NC(=O)[C@H](Cc2cccc(C(=O)O)c2)NC1=O [compound 197, cyclo(1Nal-R-K-Nle-Phe3COOH-Nle-NMeF-Cysteamine)-ClAc] (cyclo([1Nal]RK[Nle][Phe(3-COOH)][Nle][NMeF][NHCH2CH2SCH2CO]))	> 50.8
CCCCC[C@@H]1NC(=O)[C@H](Cc2ccc(OC)cc2)NC(=O)[C@H](CC2CCC2)NC(=O)[C@H](Cc2ccc(NC(=N)N)cc2)NC(=O)[C@H](CCCNC(=N)NC)N(C)C(=O)[C@H](Cc2ccccc2)NC(=O)CSC[C@@](C)(C(N)=O)NC(=O)[C@H](Cc2ccccc2)N(C)C1=O [compound 380, cyclo(F-NMeArgMe-Phe4Gn-cBuA-TyrOMe-Abp-NMeF-aMeCl-ClAc)] ({CH2CO}-F[NMeArg(Me)][Phe(4-guanidino)][Cba]Y(Me)[Ahp(2)][NMeF][αMeC]-NH2; thioether N-8)	> 50.8
CC(C)CC[C@@H]1NC(=O)[C@H](Cc2ccnc(F)c2F)NC(=O)[C@H](CC2CC2)NC(=O)[C@H](Cc2cncnc2)NC(=O)[C@H](C)N(C)C(=O)[C@H](Cc2ccccc2)OC(=O)C23CC(CNC(=O)[C@H](Cc4ccccc4)N(C)C1=O)(C2)C3 [compound 293, cyclo(FLac-NMeA-PyrimAla-cPrA-4Pal23F2-hL-NMeF-amBCP)] (cyclo([Ala(cPr)][X33][hLeu][NMeF][X1][PhLac][NMeA][Ala(pyrimidin-5-yl)]))	45.5
CCCC[C@@H]1NC(=O)[C@H](Cc2ccc(C(F)(F)F)nc2)NC(=O)[C@H](CCCn2ccnc2)N(C)C(=O)[C@H](Cc2ccccc2)OC(=O)C23CC(CNC(=O)[C@H](Cc4ccccc4)N(C)C(=O)[C@H](CCCC)NC(=O)[C@H](Cc4ccccc4F)NC1=O)(C2)C3 (single isomer, unassigned) [compound 219, cyclo(FLac-NMeNvaImid-4CF33Pal-Nle-Phe2F-Nle-NMeF-amBCP)]	> 50.8
CCCC[C@@H]1NC(=O)[C@H](Cc2cccnc2)NC(=O)[C@H](CCCN(C)C(=N)NC)N(C)C(=O)[C@H](Cc2ccccc2)OC(=O)CSC[C@@](C)(C(N)=O)NC(=O)[C@H](Cc2cccnc2)N(C)C(=O)[C@H](CCCC)NC(=O)[C@H](Cc2ccccc2F)NC1=O [compound 396, cyclo(FLac-NMeArg1MeMe-3Pal-Nle-Phe2F-Nle-NMe3Pal-aMeCl-ClAc)] ({CH2CO}-[PhLac][X22][3Pal][Nle][Phe(2-F)][Nle][NMe3Pal][αMeC]-NH2; thioether N-8)	> 50.8
